The term IC50 denotes the concentration that inhibits the measured activity by half. Lower therefore signals greater potency in that assay.

≈ marks a conversion by molar mass, not a printed value.

Drawing on ChEMBL document CHEMBL1145711, “Dolabelides C and D, Cytotoxic Macrolides Isolated from the Sea Hare Dolabella auricularia” (J Nat Prod, 1997), this text covers IC50 for two compounds.

The nature of the assay: Cytotoxicity against human HeLaS3 cells. It is filed as functional, cell-based. The settings on record: HeLa S3.

For `CCC[C@H](C/C(C)=C/[C@H]1OC(=O)[C@@H](C)[C@@H](O)[C@H](C)CC[C@H](OC(C)=O)C[C@@H](OC(C)=O)C[C@@H](OC(C)=O)CC/C(C)=C/CCC[C@@H](O)C[C@H](O)[C@@H]1C)OC(C)=O` [DOLABELIDE C], the IC50 came out at 1.9 µg/mL (≈ 2.38 µM).
With `CCC[C@H](C/C(C)=C/[C@H]1OC(=O)[C@@H](C)[C@@H](O)[C@H](C)CC[C@H](O)C[C@@H](OC(C)=O)C[C@@H](O)CC/C(C)=C/CCC[C@@H](O)C[C@H](O)[C@@H]1C)OC(C)=O` [DOLABELIDE D] the figure was 1.5 µg/mL (≈ 2.1 µM).
